Test results: US10335409B2 (priority 2012, dated 2019)

Key:
[1] = target: HCV NS3 protease domain genotype 3a (Hepatitis C virus genotype 3a, UniProt Q81258); experiment: Ki determination, NS3 protease genotype 3a (fluorogenic depsipeptide substrate); assay type: biochemical; conditions: 200 pM enzyme, NS4A peptide
Procedure, shortened: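 The NS3 protease domain (aa 1-181) with 20 μM NS4A peptide was used at 50 pM with 4 μM substrate (1b) or at 200 pM with 2 μM substrate (3a). Inhibitors (100 nM-5 pM) were pre-incubated 1 h at room temperature in HEPES/glycerol/DTT buffer with 10% DMSO. Steady-state rates (90-120 min) gave Ki via the Morrison equation, corrected for active enzyme and [S]/Km.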

[2] = tested on: genotype 1a (H77) stable HCV replicon in Huh-7-derived cells; experiment: Stable subgenomic HCV replicon EC50, genotype 1a (Renilla luciferase); assay type: cell-based, hepatitis C virus; conditions: Hepatitis C virus, stable replicon genotype 1a, 72 h, read-out: EC50 1A RLUC
Procedure, shortened: (§1)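 Compounds, three-fold diluted, were applied to Huh-7-derived cells harbouring luciferase replicons (genotype 1a H77, 1b Con1, 2a JFH-1, 4a ED43, with strain-specific adaptive mutations). Seventy-two hours later, intracellular replication was gauged by Renilla luciferase activity and EC50 derived by regression.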

[3] = tested on: genotype 1b (Con1) stable HCV replicon in Huh-7-derived cells; experiment: Stable subgenomic HCV replicon EC50, genotype 1b (Renilla luciferase); assay type: cell-based, hepatitis C virus; conditions: Hepatitis C virus, stable replicon genotype 1b, 72 h, read-out: EC50 1B RLUC
Procedure, shortened: as §1

[4] = tested on: genotype 2a (JFH-1) stable HCV replicon in Huh-7-derived cells; experiment: Stable subgenomic HCV replicon EC50, genotype 2a (Renilla luciferase); assay type: cell-based, hepatitis C virus; conditions: Hepatitis C virus, stable replicon genotype 2a, 72 h, read-out: EC50 2A RLUC
Procedure, shortened: as §1

[5] = tested on: genotype 3a (S52) stable HCV replicon in Huh-7-derived cells; experiment: Stable subgenomic HCV replicon EC50, genotype 3a (Renilla luciferase); assay type: cell-based, hepatitis C virus; conditions: Hepatitis C virus, 72 h, read-out: EC50 3A RLUC
[6] = tested on: genotype 4a (ED43) stable HCV replicon in Huh-7-derived cells; experiment: Stable subgenomic HCV replicon EC50, genotype 4a (Renilla luciferase); assay type: cell-based, hepatitis C virus; conditions: Hepatitis C virus, 72 h, read-out: EC50 4A RLUC
Procedure, shortened: as §1

[7] = tested on: genotype 3a (S52) wild type transient HCV replicon in Huh-7-derived cells; experiment: Transient-transfected HCV replicon EC50, genotype 3a wild type; assay type: cell-based, hepatitis C virus; conditions: Hepatitis C virus; transient-transfected replicon genotype 3a wild type, 72 h; read-out: EC50 3A WT
[8] = tested on: genotype 1a (H77) wild type transient HCV replicon in Huh-7-derived cells; experiment: Transient-transfected HCV replicon EC50, genotype 1a wild type; assay type: cell-based, hepatitis C virus; conditions: Hepatitis C virus, 72 h, transient-transfected replicon genotype 1a wild type, read-out: EC50 1A WT
[9] = tested on: genotype 1a NS3/4a protease inhibitor resistant variant R155K transient HCV replicon in Huh-7-derived cells; experiment: Transient-transfected HCV replicon EC50, genotype 1a R155K; assay type: cell-based, hepatitis C virus; conditions: Hepatitis C virus, 72 h, read-out: EC50 1A R155K, transient-transfected replicon genotype 1a R155K resistant variant, 72 h
[10] = tested on: genotype 1b (Con1) wild type transient HCV replicon in Huh-7-derived cells; experiment: Transient-transfected HCV replicon EC50, genotype 1b wild type; assay type: cell-based, hepatitis C virus; conditions: Hepatitis C virus, 72 h, transient-transfected replicon genotype 1b wild type, read-out: EC50 1B WT
[11] = tested on: genotype 1b NS3/4a protease inhibitor resistant variant D168A transient HCV replicon in Huh-7-derived cells; experiment: Transient-transfected HCV replicon EC50, genotype 1b D168A; assay type: cell-based, hepatitis C virus; conditions: Hepatitis C virus, 72 h, read-out: EC50 1B D168A, transient-transfected replicon genotype 1b D168A resistant variant, 72 h

Sequence of HCV NS3 protease domain genotype 3a (Q81258 whole entry, looked up, the tested form may be a part): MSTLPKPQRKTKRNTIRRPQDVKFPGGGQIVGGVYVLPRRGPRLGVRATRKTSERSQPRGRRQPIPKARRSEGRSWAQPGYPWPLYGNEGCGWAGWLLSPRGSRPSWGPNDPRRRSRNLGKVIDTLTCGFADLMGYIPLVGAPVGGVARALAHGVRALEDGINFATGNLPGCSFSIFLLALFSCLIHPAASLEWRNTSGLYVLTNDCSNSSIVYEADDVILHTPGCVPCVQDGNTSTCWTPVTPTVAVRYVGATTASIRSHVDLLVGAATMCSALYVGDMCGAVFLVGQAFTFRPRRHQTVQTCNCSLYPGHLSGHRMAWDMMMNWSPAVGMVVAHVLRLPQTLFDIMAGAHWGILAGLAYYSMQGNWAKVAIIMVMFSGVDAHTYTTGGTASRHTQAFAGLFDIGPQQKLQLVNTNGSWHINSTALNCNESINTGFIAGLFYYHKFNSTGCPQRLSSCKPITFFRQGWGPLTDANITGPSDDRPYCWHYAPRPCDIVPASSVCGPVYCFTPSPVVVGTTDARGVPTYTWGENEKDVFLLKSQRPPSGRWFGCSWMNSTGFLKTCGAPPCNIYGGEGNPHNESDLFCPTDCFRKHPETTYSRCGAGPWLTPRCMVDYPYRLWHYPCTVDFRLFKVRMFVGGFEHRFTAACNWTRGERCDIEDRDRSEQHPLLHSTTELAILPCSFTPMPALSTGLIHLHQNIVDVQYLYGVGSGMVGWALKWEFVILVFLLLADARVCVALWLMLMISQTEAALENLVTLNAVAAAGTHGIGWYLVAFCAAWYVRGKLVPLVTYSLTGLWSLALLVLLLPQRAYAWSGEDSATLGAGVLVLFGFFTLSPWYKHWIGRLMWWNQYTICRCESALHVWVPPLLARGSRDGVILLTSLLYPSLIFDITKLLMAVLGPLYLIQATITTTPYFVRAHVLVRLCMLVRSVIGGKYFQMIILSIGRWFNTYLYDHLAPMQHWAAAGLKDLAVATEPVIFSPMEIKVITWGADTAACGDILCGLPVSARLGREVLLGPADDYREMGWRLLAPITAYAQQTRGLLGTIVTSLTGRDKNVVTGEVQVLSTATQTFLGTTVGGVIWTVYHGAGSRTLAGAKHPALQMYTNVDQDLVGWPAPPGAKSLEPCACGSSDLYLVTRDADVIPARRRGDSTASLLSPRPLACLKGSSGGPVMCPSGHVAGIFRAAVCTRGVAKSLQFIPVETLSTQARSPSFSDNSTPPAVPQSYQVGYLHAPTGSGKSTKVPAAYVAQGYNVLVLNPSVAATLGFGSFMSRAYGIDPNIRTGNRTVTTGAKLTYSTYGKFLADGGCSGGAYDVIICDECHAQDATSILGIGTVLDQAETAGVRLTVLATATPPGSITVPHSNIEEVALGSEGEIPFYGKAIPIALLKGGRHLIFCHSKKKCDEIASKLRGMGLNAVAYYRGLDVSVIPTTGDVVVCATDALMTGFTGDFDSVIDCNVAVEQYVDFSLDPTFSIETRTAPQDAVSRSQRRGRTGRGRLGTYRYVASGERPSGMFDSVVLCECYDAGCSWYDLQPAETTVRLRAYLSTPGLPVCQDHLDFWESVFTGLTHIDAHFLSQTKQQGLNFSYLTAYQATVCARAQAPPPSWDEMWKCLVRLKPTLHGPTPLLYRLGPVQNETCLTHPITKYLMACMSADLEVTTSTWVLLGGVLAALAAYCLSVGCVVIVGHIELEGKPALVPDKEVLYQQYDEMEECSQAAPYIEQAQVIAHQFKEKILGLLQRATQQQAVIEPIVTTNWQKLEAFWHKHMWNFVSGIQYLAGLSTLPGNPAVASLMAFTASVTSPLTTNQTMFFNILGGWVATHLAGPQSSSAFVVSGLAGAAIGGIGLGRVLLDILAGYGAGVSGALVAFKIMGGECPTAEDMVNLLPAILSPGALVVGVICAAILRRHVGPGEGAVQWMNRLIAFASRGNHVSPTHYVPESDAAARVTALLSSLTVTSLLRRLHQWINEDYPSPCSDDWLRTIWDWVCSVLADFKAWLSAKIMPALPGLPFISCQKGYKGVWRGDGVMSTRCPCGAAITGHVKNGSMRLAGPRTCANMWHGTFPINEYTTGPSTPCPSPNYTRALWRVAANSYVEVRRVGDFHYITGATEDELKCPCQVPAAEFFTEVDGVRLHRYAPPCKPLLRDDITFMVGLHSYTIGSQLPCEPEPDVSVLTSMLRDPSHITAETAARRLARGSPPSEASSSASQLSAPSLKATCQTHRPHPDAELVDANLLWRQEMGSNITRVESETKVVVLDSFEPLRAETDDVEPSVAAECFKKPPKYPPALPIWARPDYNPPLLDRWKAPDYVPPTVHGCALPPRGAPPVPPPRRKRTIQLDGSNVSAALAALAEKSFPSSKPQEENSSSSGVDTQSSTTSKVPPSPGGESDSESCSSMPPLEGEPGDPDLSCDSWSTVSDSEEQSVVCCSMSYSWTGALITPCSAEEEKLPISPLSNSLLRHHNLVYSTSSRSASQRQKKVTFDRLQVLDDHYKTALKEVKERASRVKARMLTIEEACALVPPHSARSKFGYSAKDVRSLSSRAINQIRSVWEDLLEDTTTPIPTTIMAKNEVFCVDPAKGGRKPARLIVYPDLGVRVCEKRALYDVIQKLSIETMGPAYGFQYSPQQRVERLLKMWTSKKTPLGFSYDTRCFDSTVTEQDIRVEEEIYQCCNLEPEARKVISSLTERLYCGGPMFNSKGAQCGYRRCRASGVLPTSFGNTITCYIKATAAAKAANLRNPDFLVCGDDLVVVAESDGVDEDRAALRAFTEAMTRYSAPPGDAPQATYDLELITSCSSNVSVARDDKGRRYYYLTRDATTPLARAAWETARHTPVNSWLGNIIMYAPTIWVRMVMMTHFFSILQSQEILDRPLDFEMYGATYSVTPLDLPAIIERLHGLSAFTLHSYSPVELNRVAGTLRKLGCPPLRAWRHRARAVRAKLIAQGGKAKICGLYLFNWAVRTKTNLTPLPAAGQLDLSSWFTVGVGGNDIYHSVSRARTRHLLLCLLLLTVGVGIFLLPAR

Structure (SMILES) | Ki [1] [nM] | EC50 [2] [nM] | EC50 [3] [nM] | EC50 [4] [nM] | EC50 [5] [nM] | EC50 [6] [nM] | EC50 [7] [nM] | EC50 [8] [nM] | EC50 [9] [nM] | EC50 [10] [nM] | EC50 [11] [nM]
CC[C@@H]1[C@@H]2CN(C(=O)[C@H](C(C)(C)C)NC(=O)O[C@]3(C)CCC[C@H]3CCCCCc3nc4ccc(OC)cc4nc3O2)[C@@H]1C(=O)N[C@]1(C(=O)NS(=O)(=O)C2(C)CC2)C[C@H]1C(F)F [Example 39] | 0.2 | 34 | 39 | 41 | 321 | 26 | 89 | 23 | 63 | 16 | 105
COc1ccc2nc3c(nc2c1)O[C@H]1CN(C(=O)[C@H](C(C)(C)C)NC(=O)O[C@]2(C)C[C@H]2CCCCC3)[C@H](C(=O)N[C@]2(C(=O)NS(=O)(=O)C3(C)CC3)C[C@H]2C(F)F)[C@@H]1C [Example 44, (1aR,5S,8S,9S,10R,22aR)-5-tert-butyl-N-[(1R,2R)-2-(difluoromethyl)-1-{[(1-methylcyclopropyl)sulfonyl]carbamoyl}cyclopropyl]-14-methoxy-1a,9-dimethyl-3,6-dioxo-1,1a,3,4,5,6,9,10,18,19,20,21,22,22a-tetradecahydro-8H-7,10-methanocyclopropa[18,19][1,10,3,6]dioxadiazacyclononadecino[11,12-b]quinoxaline-8-carboxamide] | 0.08 | 3.1 | 2.1 | 2.9 | 53 | 2.2 | 7 | 2.4 | 4 | 1.4 | 15
COc1ccc2nc3c(nc2c1)O[C@H]1CN(C(=O)[C@H](C(C)(C)C)NC(=O)O[C@@H]2C[C@H]2CCCCC3(F)F)[C@H](C(=O)N[C@]2(C(=O)NS(=O)(=O)C3(C)CC3)C[C@H]2C(F)F)[C@@H]1C [Example 46, (1aR,5S,8S,9S,10R,22aR)-5-tert-butyl-N-[(1R,2R)-2-(difluoromethyl)-1-{[(1-methylcyclopropyl)sulfonyl]carbamoyl}cyclopropyl]-18,18-difluoro-14-methoxy-9-methyl-3,6-dioxo-1,1a,3,4,5,6,9,10,18,19,20,21,22,22a-tetradecahydro-8H-7,10-methanocyclopropa[18,19][1,10,3,6]dioxadiazacyclononadecino[11,12-b]quinoxaline-8-carboxamide] | 0.05 | 3.1 | 2.7 | 3.8 | 17 | 2.5 | 6.79 | 2.4 | 3.2 | 1.2 | 4.5
CC[C@@H]1[C@@H]2CN(C(=O)[C@H](C(C)(C)C)NC(=O)O[C@]3(C)C[C@H]3CCCCC(F)(F)c3nc4ccc(OC)cc4nc3O2)[C@@H]1C(=O)N[C@]1(C(=O)NS(=O)(=O)C2(C)CC2)C[C@H]1C(F)F [Example 63, (1aR,5S,8S,9S,10R,22aR)-5-tert-butyl-N-[(1R,2R)-2-(difluoromethyl)-1-{[(1-methylcyclopropyl)sulfonyl]carbamoyl}cyclopropyl]-9-ethyl-18,18-difluoro-14-methoxy-1a-methyl-3,6-dioxo-1,1a,3,4,5,6,9,10,18,19,20,21,22,22a-tetradecahydro-8H-7,10-methanocyclopropa[18,19][1,10,3,6]dioxadiazacyclononadecino[11,12-b]quinoxaline-8-carboxamide] | 0.01 | 4.2 | 2.9 | 3.2 | 11 | 3.2 | 6.9 | 4.1 | 4 | 2.1 | 3.4
